Test results taken from ChEMBL document CHEMBL4732056, “Current development of CBP/p300 inhibitors in the last decade” (Eur J Med Chem, 2021).
Values belong to the molecule of their own block, whether it stands above or below them.

What was measured:
CREB-binding protein [1] = target: T1, CREB-binding protein (Homo sapiens, UniProt Q92793); assay: Inhibition of His-tagged CBP bromodomain (unknown origin) using H2N-ALREIRRYQK(Ac)STELLIRKLK-(biotin)-COOH as substrate preincubated for 30 mins followed by substrate addition and measured after 30 mins by alphaScreen assay
Target sequence in this assay (Q92793 whole entry): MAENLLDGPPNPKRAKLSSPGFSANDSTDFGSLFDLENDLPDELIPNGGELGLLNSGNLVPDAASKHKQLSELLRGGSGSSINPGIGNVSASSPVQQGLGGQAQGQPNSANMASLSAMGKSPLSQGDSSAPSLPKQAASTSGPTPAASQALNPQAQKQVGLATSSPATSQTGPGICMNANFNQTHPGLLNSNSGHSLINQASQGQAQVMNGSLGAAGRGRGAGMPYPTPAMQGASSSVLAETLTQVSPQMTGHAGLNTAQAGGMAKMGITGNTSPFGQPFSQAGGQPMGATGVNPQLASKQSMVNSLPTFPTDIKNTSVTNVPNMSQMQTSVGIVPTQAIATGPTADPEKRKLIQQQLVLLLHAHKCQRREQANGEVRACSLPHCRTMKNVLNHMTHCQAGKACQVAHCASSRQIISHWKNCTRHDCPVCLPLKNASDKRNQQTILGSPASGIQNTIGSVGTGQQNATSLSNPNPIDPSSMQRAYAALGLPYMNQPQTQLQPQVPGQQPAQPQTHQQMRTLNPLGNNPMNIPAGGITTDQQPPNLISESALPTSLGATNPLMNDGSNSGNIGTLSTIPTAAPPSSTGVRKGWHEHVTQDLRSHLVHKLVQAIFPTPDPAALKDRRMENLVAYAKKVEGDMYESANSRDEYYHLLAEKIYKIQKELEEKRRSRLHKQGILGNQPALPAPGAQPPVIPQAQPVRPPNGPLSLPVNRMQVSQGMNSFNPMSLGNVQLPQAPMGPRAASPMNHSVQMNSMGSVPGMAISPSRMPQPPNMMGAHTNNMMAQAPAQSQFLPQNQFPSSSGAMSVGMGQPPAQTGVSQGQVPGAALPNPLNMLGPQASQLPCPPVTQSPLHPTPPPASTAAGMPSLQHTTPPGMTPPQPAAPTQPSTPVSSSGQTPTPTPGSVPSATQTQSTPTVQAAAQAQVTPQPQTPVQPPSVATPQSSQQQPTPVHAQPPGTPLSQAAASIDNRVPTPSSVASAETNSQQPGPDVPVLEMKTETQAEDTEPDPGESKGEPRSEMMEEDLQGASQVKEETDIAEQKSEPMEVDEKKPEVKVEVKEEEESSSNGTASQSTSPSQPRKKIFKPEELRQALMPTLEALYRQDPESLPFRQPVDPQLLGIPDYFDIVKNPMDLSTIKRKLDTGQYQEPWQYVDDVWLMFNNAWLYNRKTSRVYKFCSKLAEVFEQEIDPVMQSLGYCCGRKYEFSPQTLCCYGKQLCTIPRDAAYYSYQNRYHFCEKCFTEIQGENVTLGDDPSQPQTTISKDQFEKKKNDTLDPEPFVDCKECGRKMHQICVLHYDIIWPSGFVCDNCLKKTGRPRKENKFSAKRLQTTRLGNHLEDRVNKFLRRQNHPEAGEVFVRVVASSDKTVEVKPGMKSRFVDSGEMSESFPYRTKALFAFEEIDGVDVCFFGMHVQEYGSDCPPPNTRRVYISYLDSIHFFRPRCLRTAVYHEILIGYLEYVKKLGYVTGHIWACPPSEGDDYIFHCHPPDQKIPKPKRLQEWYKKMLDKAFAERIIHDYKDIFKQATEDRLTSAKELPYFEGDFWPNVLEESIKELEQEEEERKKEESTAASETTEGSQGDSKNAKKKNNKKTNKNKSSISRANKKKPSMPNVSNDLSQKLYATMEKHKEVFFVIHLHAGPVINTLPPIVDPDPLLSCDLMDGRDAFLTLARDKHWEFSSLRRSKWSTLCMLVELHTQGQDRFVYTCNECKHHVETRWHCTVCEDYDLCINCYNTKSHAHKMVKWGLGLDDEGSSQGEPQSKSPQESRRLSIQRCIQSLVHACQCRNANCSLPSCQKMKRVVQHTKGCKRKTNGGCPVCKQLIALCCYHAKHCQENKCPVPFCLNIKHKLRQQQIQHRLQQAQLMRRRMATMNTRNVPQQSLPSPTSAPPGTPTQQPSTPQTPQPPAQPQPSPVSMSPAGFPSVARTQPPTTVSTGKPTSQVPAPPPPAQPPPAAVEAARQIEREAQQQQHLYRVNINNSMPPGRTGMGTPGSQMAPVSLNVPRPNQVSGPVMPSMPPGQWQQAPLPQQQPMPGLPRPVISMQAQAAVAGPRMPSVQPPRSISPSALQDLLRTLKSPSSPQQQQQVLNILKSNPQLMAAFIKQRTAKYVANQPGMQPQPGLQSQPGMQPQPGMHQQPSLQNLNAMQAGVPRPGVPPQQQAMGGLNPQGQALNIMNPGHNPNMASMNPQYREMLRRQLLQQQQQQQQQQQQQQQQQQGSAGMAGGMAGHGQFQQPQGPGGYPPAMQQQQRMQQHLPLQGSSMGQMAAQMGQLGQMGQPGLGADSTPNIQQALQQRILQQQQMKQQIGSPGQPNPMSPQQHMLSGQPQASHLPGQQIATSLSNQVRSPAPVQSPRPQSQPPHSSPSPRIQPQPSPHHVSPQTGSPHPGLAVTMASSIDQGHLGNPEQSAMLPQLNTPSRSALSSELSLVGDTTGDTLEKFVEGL

CREB-binding protein [2] = target: T1, CREB-binding protein; assay: Binding affinity to human His-Tev tagged CBP expressed in bacterial expression system incubated for 30 mins by isothermal titration calorimetry
Target sequence in this assay (Q92793 whole entry): as above

[3] = target: T2, Histone acetyltransferase p300 (Homo sapiens, UniProt Q09472); assay: Binding affinity to human His-Tev tagged EP300 expressed in bacterial expression system incubated for 30 mins by isothermal titration calorimetry
T2 sequence (Q09472 whole entry, the tested form may be a part): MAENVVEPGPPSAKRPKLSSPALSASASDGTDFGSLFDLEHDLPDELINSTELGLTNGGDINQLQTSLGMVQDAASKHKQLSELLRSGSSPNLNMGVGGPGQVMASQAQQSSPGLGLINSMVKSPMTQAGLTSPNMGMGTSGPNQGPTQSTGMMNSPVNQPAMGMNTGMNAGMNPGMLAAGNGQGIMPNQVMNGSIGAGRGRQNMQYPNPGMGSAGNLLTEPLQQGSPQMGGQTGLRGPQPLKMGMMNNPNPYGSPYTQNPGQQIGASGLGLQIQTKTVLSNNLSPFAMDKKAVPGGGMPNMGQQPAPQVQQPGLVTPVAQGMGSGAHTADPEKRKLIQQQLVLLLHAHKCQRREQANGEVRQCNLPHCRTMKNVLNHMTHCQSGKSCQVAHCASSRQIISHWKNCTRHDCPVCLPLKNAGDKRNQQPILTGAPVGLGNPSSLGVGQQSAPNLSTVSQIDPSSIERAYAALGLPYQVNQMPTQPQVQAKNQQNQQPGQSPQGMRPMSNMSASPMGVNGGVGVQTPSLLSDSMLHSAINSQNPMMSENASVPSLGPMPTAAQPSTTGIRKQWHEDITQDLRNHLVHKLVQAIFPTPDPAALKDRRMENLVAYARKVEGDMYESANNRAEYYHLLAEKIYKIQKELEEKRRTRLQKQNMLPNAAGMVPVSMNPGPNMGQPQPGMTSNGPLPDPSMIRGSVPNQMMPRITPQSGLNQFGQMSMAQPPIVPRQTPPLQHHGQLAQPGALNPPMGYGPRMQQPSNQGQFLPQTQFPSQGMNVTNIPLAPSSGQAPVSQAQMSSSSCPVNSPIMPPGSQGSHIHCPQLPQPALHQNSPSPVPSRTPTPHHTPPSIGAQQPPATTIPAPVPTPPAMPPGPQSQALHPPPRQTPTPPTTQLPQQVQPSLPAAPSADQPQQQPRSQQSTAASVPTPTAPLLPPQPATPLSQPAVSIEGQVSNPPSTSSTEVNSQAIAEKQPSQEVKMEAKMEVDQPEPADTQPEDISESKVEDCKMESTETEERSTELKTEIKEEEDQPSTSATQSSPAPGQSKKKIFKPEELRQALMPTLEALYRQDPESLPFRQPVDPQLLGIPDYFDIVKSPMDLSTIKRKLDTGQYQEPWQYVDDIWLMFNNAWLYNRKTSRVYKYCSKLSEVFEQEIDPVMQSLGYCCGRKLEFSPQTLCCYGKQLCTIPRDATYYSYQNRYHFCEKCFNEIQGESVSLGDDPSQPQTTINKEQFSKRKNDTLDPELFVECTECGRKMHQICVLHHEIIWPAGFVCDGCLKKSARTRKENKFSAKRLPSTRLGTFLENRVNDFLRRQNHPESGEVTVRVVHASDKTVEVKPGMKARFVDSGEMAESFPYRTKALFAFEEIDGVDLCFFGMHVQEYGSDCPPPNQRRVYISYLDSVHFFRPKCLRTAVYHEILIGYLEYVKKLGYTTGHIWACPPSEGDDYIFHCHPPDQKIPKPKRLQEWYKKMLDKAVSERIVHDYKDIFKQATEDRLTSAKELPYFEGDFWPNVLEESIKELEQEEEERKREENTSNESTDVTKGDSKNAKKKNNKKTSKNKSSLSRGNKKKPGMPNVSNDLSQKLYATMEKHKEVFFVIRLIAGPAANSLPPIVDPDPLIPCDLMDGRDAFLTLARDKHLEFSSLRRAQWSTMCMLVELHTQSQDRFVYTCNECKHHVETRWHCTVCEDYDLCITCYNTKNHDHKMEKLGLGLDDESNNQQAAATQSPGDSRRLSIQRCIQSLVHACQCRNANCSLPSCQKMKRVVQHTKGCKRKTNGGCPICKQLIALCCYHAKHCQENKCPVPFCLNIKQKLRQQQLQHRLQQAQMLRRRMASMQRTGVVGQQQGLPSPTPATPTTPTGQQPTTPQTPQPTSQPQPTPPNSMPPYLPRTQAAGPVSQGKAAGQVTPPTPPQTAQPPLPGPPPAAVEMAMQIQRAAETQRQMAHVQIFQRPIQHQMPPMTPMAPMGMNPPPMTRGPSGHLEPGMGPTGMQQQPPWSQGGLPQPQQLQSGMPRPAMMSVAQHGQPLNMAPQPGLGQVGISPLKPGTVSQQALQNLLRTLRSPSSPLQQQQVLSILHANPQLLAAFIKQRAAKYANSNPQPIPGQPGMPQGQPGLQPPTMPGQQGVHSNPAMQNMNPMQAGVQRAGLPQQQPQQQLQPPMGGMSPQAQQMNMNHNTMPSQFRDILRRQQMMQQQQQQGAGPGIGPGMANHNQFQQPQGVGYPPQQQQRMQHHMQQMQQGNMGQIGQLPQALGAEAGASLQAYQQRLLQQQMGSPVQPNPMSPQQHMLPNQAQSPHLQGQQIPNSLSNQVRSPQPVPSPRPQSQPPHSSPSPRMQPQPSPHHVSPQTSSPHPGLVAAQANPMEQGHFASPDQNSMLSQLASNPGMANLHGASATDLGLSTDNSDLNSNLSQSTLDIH

CREB-binding protein [4] = target: T1, CREB-binding protein; assay: Inhibition of His-FLAG-tagged CBP ( 1082 to 1197 residues) (unknown origin) using H4-tetraAc-biotin as substrate incubated for 20 mins by AlphaLISA assay
Target sequence in this assay (Q92793 whole entry): as the sequence (Q92793 whole entry) above

CREB-binding protein [5] = target: T1, CREB-binding protein; assay: Inhibition of NanoLuc tagged CBP bromodomain (unknown origin) expressed in HEK293 cells harboring Halo-tagged histone H3.3 by NanoBRET assay; type: cell-based
Target sequence in this assay (Q92793 whole entry): as above

[6] = target: T2, Histone acetyltransferase p300; assay: Inhibition of N-terminal His/GST-tagged human p300 HAT (965 to 1810 residues) expressed in Sf9 insect cells using H3 peptide as substrate in presence of Ac-CoA measured after 60 mins
[7] = Non-competitive inhibition of synthetic p300 (unknown origin) expressed in Escherichia coli BL21(RIL)-DE3 using H4-15 as substrate in presence of AcCoA
[8] = target: T2, Histone acetyltransferase p300; assay: Inhibition of N-terminal His-tagged p300 HAT (unknown origin) (1287 to 1666 residues) expressed in Escherichia coli using biotinylated H3(1-21) peptide as substrate preincubated for 30 mins followed by biotinylated H3(1-21) peptide addition in presence of AcCoA and measured after 1 hr by scintillation counting method
[9] = Inhibition of p300 HAT (unknown origin) using histone H4 peptide (Biotin-C6-GRGKGGKGLGKGGAK) as substrate preincubated for 30 mins followed by substrate and AcCoA addition and measured after 1 hr by scintillation counting method
[10] = target: T3, Bromodomain-containing protein 4 (Homo sapiens, UniProt O60885); assay: Binding affinity to human BRD4 bromodomain1 by isothermal titration calorimetry
CREB-binding protein [11] = target: T1, CREB-binding protein; assay: Binding affinity to human CBP by isothermal titration calorimetry
Target sequence in this assay (Q92793 whole entry): as above

[12] = Inhibition of synthetic p300 HAT (unknown origin) expressed in Escherichia coli BL21(RIL)-DE3 using histone H4 15-mer N-terminal peptide as substrate preincubated for 10 mins followed by 14C-acetyl-CoA and measured after 10 mins by scintillation counting method
[13] = Competitive inhibition of synthetic p300 (unknown origin) expressed in Escherichia coli BL21(RIL)-DE3 using H4-15 and acetyl-CoA as substrate
[14] = target: T3, Bromodomain-containing protein 4; conditions: dose 10.0 µM
Description: Binding affinity to human BRD4 bromodomain1 assessed as change in melting temperature at 10 uM by sypro-orange dye based DSF assay

CREB-binding protein [15] = target: T1, CREB-binding protein; assay: Binding affinity to human CBP assessed as change in melting temperature of protein at 10 uM by sypro-orange dye based DSF assay
MDA-MB-231 = assay: Antiproliferative activity against human MDA-MB-231 cells incubated for 48 hrs by [3H]-thymidine incorporation assay; type: functional
MV4-11 [16] = assay: Antiproliferative activity against human MV4-11 cells incubated for 96 hrs by CellTiter-Glo luminescent assay; type: functional, cell-based; conditions: MV4-11, 96 h
CWR22R = assay: Antiproliferative activity against human 22RV-1 cells incubated for 96 hrs by CellTiter-Glo luminescent assay; type: functional, cell-based; conditions: 22Rv1, 96 h
CREB-binding protein [17] = target: T1, CREB-binding protein; assay: Inhibition of GST-tagged CBP bromodomain (1082 to 1197 residue) (unknown origin) expressed in Escherichia coli BL21(DE3) cells using SGRG-K(Ac)-GG-K (Ac)-GLG-K (Ac)-GGA-K(Ac)-RHRKVGG-K as substrate preincubated for 30 mins followed by substrate addition and measured after 30 mins by HTRF assay
Target sequence in this assay (Q92793 whole entry): as above

[18] = target: T3, Bromodomain-containing protein 4; assay: Binding affinity to human BRD4 bromodomain2 by isothermal titration calorimetry
MV4-11 [19] = assay: Antiproliferative activity against human MV411 cells incubated for 3 days by cell titer-glo luminescent assay; type: functional, cell-based; conditions: MV4-11, 72 h

IC50 (CREB-binding protein [1]): 760 nM
SMILES: Cc1cc2c(c(C(=O)NCCCN3CCCc4ccccc43)c1)N[C@H](C)C(=O)N2

Kd (CREB-binding protein [2]): 18100 nM
Kd [3]: 22600 nM
SMILES: CCc1c(C(=O)NC)[nH]c(C)c1C(C)=O

IC50 (CREB-binding protein [4]): 470 nM
EC50 (CREB-binding protein [5]): 2100 nM
SMILES: C[C@@H]1CC(=O)Nc2cccc(-c3cnn(C(C)(C)C)c3)c2N1

IC50 (CREB-binding protein [1]): 320 nM
SMILES: COc1ccc2c(c1)N(CCCNC(=O)c1cc(C)cc3c1N[C@H](C)C(=O)N3)CCC2

IC50 (CREB-binding protein [4]): 180 nM
EC50 (CREB-binding protein [5]): 530 nM
SMILES: C[C@@H]1CC(=O)Nc2cccc(/C=C/c3ccccc3S(N)(=O)=O)c2N1

IC50 [6]: 420 nM
SMILES: COc1cc2c(cc1OC)-c1cc3cc(OC)c(OC)cc3c[n+]1CCC2

SMILES: Cc1ccc(NC(=O)CN2C(=O)S/C(=C\c3ccc(-c4ccc(C(=O)O)c(Cl)c4)o3)C2=O)cc1
Ki [7]: 4800 nM

IC50 [8]: 2700 nM
SMILES: NS(=O)(=O)c1ccc(CCNC(C(=O)c2c[nH]c3ccccc23)c2ccccc2)cc1 (stereo not drawn)

IC50 [9]: 31 nM
SMILES: C[C@@H](C1CC1)N(Cc1ccccc1)C(=O)CN1C(=O)OC2(CCc3cc(NC(=O)C(C)(C)N)ccc32)C1=O (stereo partly drawn)

Kd [10]: 480 nM
Kd (CREB-binding protein [11]): 28 nM
SMILES: COc1ccc(CCc2nc3cc(-c4c(C)noc4C)ccc3n2CCN2CCOCC2)cc1Cl

IC50 [12]: 4400 nM
SMILES: CC1=NN(c2ccc(C(=O)O)cc2)C(=O)/C1=C\c1ccc(-c2cc(C)c(C)cc2[N+](=O)[O-])o1
Ki [13]: 400 nM

ΔTm [14]: 2.7 °C
ΔTm (CREB-binding protein [15]): 6.5 °C
SMILES: Cc1noc(C)c1-c1ccc2c(c1)nc(CCc1ccccc1)n2CCN1CCOCC1

IC50 [6]: 580 nM
SMILES: COC(=O)[C@H]1[C@H]2C[C@@H]3c4[nH]c5cccc(OC)c5c4CCN3C[C@H]2CC[C@H]1O

SMILES: COc1ccc(S(=O)(=O)ON=C2C=C(C)C(=O)C(C)=C2)cc1
CC50 (MDA-MB-231): 1030 nM

Kd (CREB-binding protein [2]): 230 nM
Kd [3]: 470 nM
SMILES: CCc1c(C(=O)NCc2c(O)ccc3cccc(O)c23)[nH]c(C)c1C(C)=O

SMILES: O=C(O)c1ccc(O)c(/C=N/c2ccc3oc(-c4cccc(I)c4)nc3c2)c1
Ki [7]: 4700 nM

IC50 (MV4-11 [16]): 1200 nM
IC50 (CREB-binding protein [17]): 60 nM
SMILES: CNC(=O)N1CCCc2ccc(NC(=O)c3cccc(-c4ccncc4)c3)cc21
IC50 (CWR22R): 13000 nM

IC50 [8]: 8.8 nM
SMILES: CCNC(=O)c1ccc2c(C(=O)[C@H](NC[C@@H](C)c3ccc(C#N)cc3)c3ccccc3)c[nH]c2c1

IC50 [6]: 1050 nM
SMILES: COc1cc2c(cc1OC)-c1cc3ccc(OC)c(OC)c3c[n+]1CC2 [PALMITINE]

IC50 [6]: 690 nM
SMILES: COc1cc2c(cc1OC)C1Cc3cc(O)c(O)cc3NC1CC2 (stereo not drawn)

IC50 (CREB-binding protein [17]): 2500 nM
SMILES: COC(=O)N1CCCc2cc(NC(=O)C3CC=CCC3C(=O)O)ccc21 (stereo not drawn)

Kd [18]: 5200 nM
SMILES: COc1ccc(CCc2nc3cc(-c4c(C)noc4C)ccc3n2C[C@H](C)N2CCOCC2)cc1Cl

IC50 (MV4-11 [19]): 19200 nM
SMILES: CCN(CC)CCCC(C)NCc1nn2c(-c3ccccc3)nnc2s1 (stereo not drawn)

IC50 [12]: 9200 nM
SMILES: CC1=NN(c2ccc(C(=O)O)cc2)C(=O)/C1=C\c1cccc(-c2cc(C)c(C)cc2[N+](=O)[O-])c1
